Data as given in patent US6479435B1, “Diaryl ethers and processes for their preparation and herbicidal and desiccant compositions containing them” (ISK Americas Incorporated, priority 1997, dated 2002).

How the values were obtained:
Format in all cases: in vivo
[1] = test system: soybean (Glycine max L., var. Pella 86, SOY); test: Post-emerge greenhouse test, crop damage rating; conditions: 14 days after application
Summary of the method: (§1)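 Scores use a 0 (no damage) to 100 (complete kill) scale, taken 14 days after a foliar spray. Acetone solutions with 0.25% v/v non-ionic surfactant were applied by track sprayer at 187 l/ha and 63-1000 g ai/ha to bottom-watered 2-3 leaf plants.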

[2] = test system: common ragweed (Ambrosia artemisiifolia L., AMBEL); test: Post-emerge greenhouse herbicide test, phytotoxicity rating; conditions: 14 days after application
Summary of the method: as §1

[3] = test system: redroot pigweed (Amaranthus retroflexus, AMARE); test: Pre-emerge greenhouse herbicide test, phytotoxicity rating; conditions: 14 days after application, rating scale 0-100
Summary of the method: (§2)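 Visual 0–100 injury rating (100 = all plants dead) taken 14 days after treatment. Rates of 125–1000 g ai/ha in acetone, 187 l/ha, were sprayed onto soil one day post-sowing; pots were surface-watered to incorporate, then bottom-watered.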

[4] = test system: Johnsongrass (Sorghum halepense, SORHA); test: as above; conditions: 14 days after application, rating scale 0-100
Summary of the method: as §2

[5] = test system: velvetleaf (Abutilon theophrasti, ABUTH); test: as above; conditions: 14 days after application, rating scale 0-100
Summary of the method: as §2

[6] = test system: ivyleaf morningglory (Ipomoea hederacea, IPOHE); test: as above; conditions: 14 days after application, rating scale 0-100
Summary of the method: as §2

[7] = test system: sicklepod (Cassia obtusifolia, CASOB); test: as above; conditions: 14 days after application, rating scale 0-100
Summary of the method: as §2

[8] = test system: common ragweed (Ambrosia artemisiifolia L., AMBEL); test: as above; conditions: 14 days after application, rating scale 0-100
Summary of the method: as §2

[9] = test system: lambsquarters (Chenopodium album, CHEAL); test: as above; conditions: 14 days after application, rating scale 0-100
Summary of the method: as §2

[10] = test system: green foxtail (Setaria viridis, SETVI); test: as above; conditions: 14 days after application, rating scale 0-100
Summary of the method: as §2

[11] = test system: large crabgrass (Digitaria sanguinalis, DIGSA); test: as above; conditions: 14 days after application, rating scale 0-100
Summary of the method: as §2

[12] = test system: barnyardgrass (Echinochloa crusgalli, ECHCG); test: as above; conditions: 14 days after application, rating scale 0-100
Summary of the method: as §2

[13] = test system: soybean (Glycine max L., var. Pella 86, SOY); test: Pre-emerge greenhouse test, crop damage rating; conditions: 14 days after application, rating scale 0-100
Summary of the method: as §2

[14] = test system: redroot pigweed (Amaranthus retroflexus, AMARE); test: Post-emerge greenhouse herbicide test, phytotoxicity rating; conditions: 14 days after application
Summary of the method: as §1

[15] = test system: Johnsongrass (Sorghum halepense, SORHA); test: as above; conditions: 14 days after application
Summary of the method: as §1

[16] = test system: velvetleaf (Abutilon theophrasti, ABUTH); test: as above; conditions: 14 days after application
Summary of the method: as §1

[17] = test system: ivyleaf morningglory (Ipomoea hederacea, IPOHE); test: as above; conditions: 14 days after application
Summary of the method: as §1

[18] = test system: sicklepod (Cassia obtusifolia, CASOB); test: as above; conditions: 14 days after application
Summary of the method: as §1

[19] = test system: lambsquarters (Chenopodium album, CHEAL); test: as above; conditions: 14 days after application
Summary of the method: as §1

[20] = test system: green foxtail (Setaria viridis, SETVI); test: as above; conditions: 14 days after application
Summary of the method: as §1

[21] = test system: large crabgrass (Digitaria sanguinalis, DIGSA); test: as above; conditions: 14 days after application
Summary of the method: as §1

[22] = test system: barnyardgrass (Echinochloa crusgalli, ECHCG); test: as above; conditions: 14 days after application
Summary of the method: as §1

[23] = test system: field corn (Zea mays L., var. Dekalb 535, CORN); test: Pre-emerge greenhouse test, crop damage rating; conditions: 14 days after application, rating scale 0-100
Summary of the method: as §2

[24] = test system: upland rice (Oryza sp., var.Tebonnet, RICE); test: Pre-emerge greenhouse test, crop damage rating; conditions: 14 days after application, rating scale 0-100
Summary of the method: as §2

[25] = test system: field corn (Zea mays L., var. Dekalb 535, CORN); test: Post-emerge greenhouse test, crop damage rating; conditions: 14 days after application
Summary of the method: as §1

[26] = test system: upland rice (Oryza sp., var.Tebonnet, RICE); test: Post-emerge greenhouse test, crop damage rating; conditions: 14 days after application
Summary of the method: as §1

SMILES: Nc1ccc(Oc2cc(-n3c(=O)n4n(c3=S)CCCC4)c(F)cc2Cl)c(C(F)(F)F)c1 [Compound 8-15]
- SOY crop damage rating (0-100) ([1]; 63 g al/ha): 20
- SOY crop damage rating (0-100) ([1]; 500 g al/ha): 50
- AMBEL phytotoxicity rating (0-100) ([2]; 63 g al/ha): 30
- AMBEL phytotoxicity rating (0-100) ([2]; 500 g al/ha): 70
- phytotoxicity rating AMARE ([3]; 125 g ai/ha): 0
- phytotoxicity rating AMARE ([3]; 500 g ai/ha): 40
- phytotoxicity rating SORHA ([4]; 125 g ai/ha): 0
- phytotoxicity rating SORHA ([4]; 500 g ai/ha): 0
- phytotoxicity rating ABUTH ([5]; 125 g ai/ha): 0
- phytotoxicity rating ABUTH ([5]; 500 g ai/ha): 50
- phytotoxicity rating IPOHE ([6]; 125 g ai/ha): 0
- phytotoxicity rating IPOHE ([6]; 500 g ai/ha): 0
- phytotoxicity rating CASOB ([7]; 125 g ai/ha): 0
- phytotoxicity rating CASOB ([7]; 500 g ai/ha): 0
- phytotoxicity rating AMBEL ([8]; 125 g ai/ha): 0
- phytotoxicity rating AMBEL ([8]; 500 g ai/ha): 0
- phytotoxicity rating CHEAL ([9]; 125 g ai/ha): 0
- phytotoxicity rating CHEAL ([9]; 500 g ai/ha): 100
- phytotoxicity rating SETVI ([10]; 125 g ai/ha): 0
- phytotoxicity rating SETVI ([10]; 500 g ai/ha): 0
- phytotoxicity rating DIGSA ([11]; 125 g ai/ha): 0
- phytotoxicity rating DIGSA ([11]; 500 g ai/ha): 0
- phytotoxicity rating ECHCG ([12]; 125 g ai/ha): 0
- phytotoxicity rating ECHCG ([12]; 500 g ai/ha): 0
- crop damage rating SOY ([13]; 125 g ai/ha): 0
- crop damage rating SOY ([13]; 500 g ai/ha): 0
- AMARE phytotoxicity rating (0-100) ([14]; 63 g al/ha): 40
- AMARE phytotoxicity rating (0-100) ([14]; 500 g al/ha): 70
- SORHA phytotoxicity rating (0-100) ([15]; 63 g al/ha): 0
- SORHA phytotoxicity rating (0-100) ([15]; 500 g al/ha): 0
- ABUTH phytotoxicity rating (0-100) ([16]; 63 g al/ha): 50
- ABUTH phytotoxicity rating (0-100) ([16]; 500 g al/ha): 80
- IPOHE phytotoxicity rating (0-100) ([17]; 63 g al/ha): 40
- IPOHE phytotoxicity rating (0-100) ([17]; 500 g al/ha): 80
- CASOB phytotoxicity rating (0-100) ([18]; 63 g al/ha): 0
- CASOB phytotoxicity rating (0-100) ([18]; 500 g al/ha): 50
- CHEAL phytotoxicity rating (0-100) ([19]; 63 g al/ha): 70
- CHEAL phytotoxicity rating (0-100) ([19]; 500 g al/ha): 90
- SETVI phytotoxicity rating (0-100) ([20]; 63 g al/ha): 0
- SETVI phytotoxicity rating (0-100) ([20]; 500 g al/ha): 0
- DIGSA phytotoxicity rating (0-100) ([21]; 63 g al/ha): 0
- DIGSA phytotoxicity rating (0-100) ([21]; 500 g al/ha): 0
- ECHCG phytotoxicity rating (0-100) ([22]; 63 g al/ha): 0
- ECHCG phytotoxicity rating (0-100) ([22]; 500 g al/ha): 0
- crop damage rating CORN ([23]; 125 g ai/ha): 0
- crop damage rating CORN ([23]; 500 g ai/ha): 0
- crop damage rating RICE ([24]; 125 g ai/ha): 0
- crop damage rating RICE ([24]; 500 g ai/ha): 0
- CORN crop damage rating (0-100) ([25]; 63 g al/ha): 0
- CORN crop damage rating (0-100) ([25]; 500 g al/ha): 0
- RICE crop damage rating (0-100) ([26]; 63 g al/ha): 0
- RICE crop damage rating (0-100) ([26]; 500 g al/ha): 0

SMILES: O=c1n(CCCF)nnn1-c1cc(Oc2ncccc2[N+](=O)[O-])c(Cl)cc1F [Compound 6-2]
- SOY crop damage rating (0-100) ([1]; 63 g al/ha): 20
- SOY crop damage rating (0-100) ([1]; 500 g al/ha): 30
- AMBEL phytotoxicity rating (0-100) ([2]; 63 g al/ha): 10
- AMBEL phytotoxicity rating (0-100) ([2]; 500 g al/ha): 30
- phytotoxicity rating AMARE ([3]; 125 g ai/ha): 95
- phytotoxicity rating AMARE ([3]; 500 g ai/ha): 99
- phytotoxicity rating SORHA ([4]; 125 g ai/ha): 0
- phytotoxicity rating SORHA ([4]; 500 g ai/ha): 0
- phytotoxicity rating ABUTH ([5]; 125 g ai/ha): 90
- phytotoxicity rating ABUTH ([5]; 500 g ai/ha): 100
- phytotoxicity rating IPOHE ([6]; 125 g ai/ha): 10
- phytotoxicity rating IPOHE ([6]; 500 g ai/ha): 40
- phytotoxicity rating CASOB ([7]; 125 g ai/ha): 20
- phytotoxicity rating CASOB ([7]; 500 g ai/ha): 0
- phytotoxicity rating AMBEL ([8]; 125 g ai/ha): 30
- phytotoxicity rating AMBEL ([8]; 500 g ai/ha): 40
- phytotoxicity rating CHEAL ([9]; 125 g ai/ha): 100
- phytotoxicity rating CHEAL ([9]; 500 g ai/ha): 100
- phytotoxicity rating SETVI ([10]; 125 g ai/ha): 30
- phytotoxicity rating SETVI ([10]; 500 g ai/ha): 70
- phytotoxicity rating DIGSA ([11]; 125 g ai/ha): 0
- phytotoxicity rating DIGSA ([11]; 500 g ai/ha): 60
- phytotoxicity rating ECHCG ([12]; 125 g ai/ha): 0
- phytotoxicity rating ECHCG ([12]; 500 g ai/ha): 10
- crop damage rating SOY ([13]; 125 g ai/ha): 10
- crop damage rating SOY ([13]; 500 g ai/ha): 15
- AMARE phytotoxicity rating (0-100) ([14]; 63 g al/ha): 40
- AMARE phytotoxicity rating (0-100) ([14]; 500 g al/ha): 95
- SORHA phytotoxicity rating (0-100) ([15]; 63 g al/ha): 0
- SORHA phytotoxicity rating (0-100) ([15]; 500 g al/ha): 20
- ABUTH phytotoxicity rating (0-100) ([16]; 63 g al/ha): 98
- ABUTH phytotoxicity rating (0-100) ([16]; 500 g al/ha): 100
- IPOHE phytotoxicity rating (0-100) ([17]; 63 g al/ha): 20
- IPOHE phytotoxicity rating (0-100) ([17]; 500 g al/ha): 90
- CASOB phytotoxicity rating (0-100) ([18]; 63 g al/ha): 0
- CASOB phytotoxicity rating (0-100) ([18]; 500 g al/ha): 10
- CHEAL phytotoxicity rating (0-100) ([19]; 63 g al/ha): 50
- CHEAL phytotoxicity rating (0-100) ([19]; 500 g al/ha): 90
- SETVI phytotoxicity rating (0-100) ([20]; 63 g al/ha): 10
- SETVI phytotoxicity rating (0-100) ([20]; 500 g al/ha): 10
- DIGSA phytotoxicity rating (0-100) ([21]; 63 g al/ha): 0
- DIGSA phytotoxicity rating (0-100) ([21]; 500 g al/ha): 0
- ECHCG phytotoxicity rating (0-100) ([22]; 63 g al/ha): 0
- ECHCG phytotoxicity rating (0-100) ([22]; 500 g al/ha): 30
- crop damage rating CORN ([23]; 125 g ai/ha): 0
- crop damage rating CORN ([23]; 500 g ai/ha): 0
- crop damage rating RICE ([24]; 125 g ai/ha): 20
- crop damage rating RICE ([24]; 500 g ai/ha): 10
- CORN crop damage rating (0-100) ([25]; 63 g al/ha): 5
- CORN crop damage rating (0-100) ([25]; 500 g al/ha): 5
- RICE crop damage rating (0-100) ([26]; 63 g al/ha): 0
- RICE crop damage rating (0-100) ([26]; 500 g al/ha): 30
